Assay results as given in patent publication US6326139A (priority 1997, dated 2001).
“Also recorded” adds a separate entry of the source. Read-outs that look alike come from different tables or passages of the source.

Legend:
[1] = tested on: recombinant human BuChE, normal and "atypical"; test: Spontaneous reactivation after complete inhibition, BuChE; format: biochemical
AChE (E5) = AChE (E5) (Homo sapiens, UniProt P22303); test: Inactivation by carbamate inhibitors, AChE E5; format: biochemical; design: made in house; host or cells: Xenopus oocytes injected with ACHE DNA; settings: inhibitor concentration in parentheses in table
Sequence of AChE (E5) (P22303-4 with tags, fused parts or gaps limits assumed): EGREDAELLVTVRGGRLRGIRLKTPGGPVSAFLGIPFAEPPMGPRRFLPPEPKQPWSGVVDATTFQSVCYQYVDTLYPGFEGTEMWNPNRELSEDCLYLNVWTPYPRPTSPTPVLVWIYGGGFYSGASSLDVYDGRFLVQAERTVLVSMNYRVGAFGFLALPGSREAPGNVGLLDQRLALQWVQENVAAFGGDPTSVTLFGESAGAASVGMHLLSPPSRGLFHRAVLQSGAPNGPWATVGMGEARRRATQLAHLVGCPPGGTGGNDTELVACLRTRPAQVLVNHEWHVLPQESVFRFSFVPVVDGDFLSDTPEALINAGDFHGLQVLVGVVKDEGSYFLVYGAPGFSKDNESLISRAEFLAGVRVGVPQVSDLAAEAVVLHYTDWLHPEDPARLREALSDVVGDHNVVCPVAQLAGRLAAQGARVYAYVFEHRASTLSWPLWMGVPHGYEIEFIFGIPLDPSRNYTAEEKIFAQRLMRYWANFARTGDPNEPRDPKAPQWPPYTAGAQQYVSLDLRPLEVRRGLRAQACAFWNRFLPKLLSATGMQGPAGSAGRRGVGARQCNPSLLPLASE
Description: (§1) reagent concentration (in parentheses), to calculate second order rate

AChE (E6) = AChE (E6) (Homo sapiens, UniProt P22303); test: Inactivation by carbamate inhibitors, AChE E6; format: biochemical; design: made in house; host or cells: Xenopus oocytes injected with ACHE DNA; settings: inhibitor concentration in parentheses in table
Sequence of AChE (E6) (P22303 32-614): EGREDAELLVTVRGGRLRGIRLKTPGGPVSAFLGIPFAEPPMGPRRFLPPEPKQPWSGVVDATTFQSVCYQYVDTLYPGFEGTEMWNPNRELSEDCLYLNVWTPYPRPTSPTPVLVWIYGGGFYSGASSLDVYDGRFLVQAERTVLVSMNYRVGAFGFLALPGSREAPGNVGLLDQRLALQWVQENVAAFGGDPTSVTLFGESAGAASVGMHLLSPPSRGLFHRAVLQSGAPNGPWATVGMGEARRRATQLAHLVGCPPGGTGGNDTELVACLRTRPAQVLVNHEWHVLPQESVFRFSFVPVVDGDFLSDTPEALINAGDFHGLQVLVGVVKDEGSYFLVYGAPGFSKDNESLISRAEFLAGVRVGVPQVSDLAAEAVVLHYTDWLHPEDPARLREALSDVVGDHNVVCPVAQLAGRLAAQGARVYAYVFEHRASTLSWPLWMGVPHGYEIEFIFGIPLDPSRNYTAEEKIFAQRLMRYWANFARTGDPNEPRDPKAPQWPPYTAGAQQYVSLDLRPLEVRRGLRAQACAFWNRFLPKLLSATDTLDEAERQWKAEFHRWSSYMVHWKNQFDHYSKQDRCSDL
Description: as §1

recombinant human AChE = test: Spontaneous reactivation after complete inhibition, AChE; format: biochemical
[2] = tested on: serum "atypical" BuChE (G/G); test: Inactivation of immobilized serum BuChE, "atypical"; format: biochemical, human; settings: for rate of irreversible inactivation versus normal: "atypical" serum BuChE
recombinant normal BuChE = target: T1, recombinant normal BuChE (Homo sapiens, UniProt P06276); test: Inactivation by carbamate inhibitors, normal BuChE; format: biochemical; settings: for inactivation rate compared with AChE: common BuChE; for second order rate constant ki for inactivation: recombinant normal BuChE, inhibitor concentration in parentheses in table
T1 construct: made in house; host or cells: Xenopus oocytes injected with in vitro transcribed mRNA
T1 sequence (P06276 29-602): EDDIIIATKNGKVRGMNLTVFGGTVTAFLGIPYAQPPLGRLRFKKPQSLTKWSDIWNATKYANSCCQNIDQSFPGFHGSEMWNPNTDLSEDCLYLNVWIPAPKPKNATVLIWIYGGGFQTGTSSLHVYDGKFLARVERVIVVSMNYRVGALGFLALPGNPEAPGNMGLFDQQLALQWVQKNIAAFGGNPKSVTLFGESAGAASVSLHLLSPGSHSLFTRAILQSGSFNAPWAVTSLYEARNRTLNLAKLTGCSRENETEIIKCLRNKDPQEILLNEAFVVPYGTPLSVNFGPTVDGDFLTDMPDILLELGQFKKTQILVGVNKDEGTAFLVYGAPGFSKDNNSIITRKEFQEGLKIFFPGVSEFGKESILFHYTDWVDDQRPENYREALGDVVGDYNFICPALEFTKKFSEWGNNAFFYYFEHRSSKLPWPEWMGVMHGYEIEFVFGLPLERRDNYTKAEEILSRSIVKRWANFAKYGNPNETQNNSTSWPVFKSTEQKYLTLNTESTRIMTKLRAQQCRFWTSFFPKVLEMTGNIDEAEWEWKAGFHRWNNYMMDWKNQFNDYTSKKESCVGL
Description: as §1

"atypical" BuChE [3] = target: T2, "atypical" BuChE (Homo sapiens, UniProt P06276, D98G)
Target sequence in this assay (P06276 29-602 D98G): as the sequence (P06276 29-602) above, with D70G counted along it
Description: Recombinant normal and "atypical" BuChE were produced in Xenopus oocytes microinjected with in vitro transcribed BuChEmRNAs prepared from the corresponding cDNA types (Neville et al, 1990a).
Free binding sites were blocked with PBS-T buffer (144 mM NaCl, 20 mM Na phosphate pH 7.4, 0.05% Tween 20 and 0.01% Tymerosal) for 60 minutes at 37° C. […] Plates were washed three times with PBS-T prior to use.
Inactivation and reactivation measurements: Antibody-immobilized enzymes were exposed to the tested anti-ChEs in PBS-T buffer for varying times (0.5 to 80 minutes) following an initial determination of catalytic activities. At the noted time points, plates were washed three times with PBS-T and remaining substrate hydrolysis rates were determined (Loewenstein et al., 1993a). Spontaneous reactivation was measured for immobilized recombinant ChEs following complete inhibition, three washes with PBS-T, and subsequent incubation for the noted time and activity determination.

[4] = tested on: AChE in term placenta sections; test: Cytochemical ChE staining, term placenta; design: species or system human; settings: 10^-5 M
[5] = tested on: BuChE in early placenta sections; test: Cytochemical ChE staining, early placenta; design: species or system human; settings: 10^-5 M
serum normal BuChE (D/D) = test: Inactivation of immobilized serum BuChE, normal; format: biochemical, human; settings: 30 minutes; normal enzyme
[6] = tested on: recombinant human ChEs (all of the examined enzymes); test: Spontaneous reactivation after complete inhibition, all enzymes; format: biochemical
[7] = tested on: heterozygous serum BuChE (D/G); test: Inactivation of immobilized serum BuChE, heterozygote; format: biochemical, human; settings: 30 minutes
"atypical" BuChE [8] = target: T2, "atypical" BuChE; settings: cited from earlier work
Target sequence in this assay (P06276 29-602 D98G limits assumed): as the sequence (P06276 29-602) above, with D70G counted along it

[9] = target: T3, Rec. BuChE G/G ("atypical") (Homo sapiens, UniProt P06276, D98G); test: Inhibition by cocaine / α-solanine, recombinant G/G; format: biochemical
T3 construct: made in house; host or cells: Xenopus oocytes (microinjected in vitro transcribed mRNA)
T3 sequence (P06276 29-602 D98G): as the sequence (P06276 29-602) above, with D70G counted along it

[10] = target: T4, Serum BuChE G/G ("atypical") (Homo sapiens, UniProt P06276, D98G); test: Inhibition by cocaine / α-solanine, serum G/G; format: biochemical
T4 construct: applicants prepared serum from an individual who had experienced succinylcholine-induced apnea; from tissue; host or cells: human serum, homozygous carrier of the atypical allele
T4 sequence (P06276 29-602 D98G): as the sequence (P06276 29-602) above, with D70G counted along it

[11] = target: T5, normal BuChE (serum and recombinant) (Homo sapiens, UniProt P06276); test: Inhibition by cocaine / α-solanine, normal enzymes; format: biochemical
T5 construct: made in house; host or cells: Xenopus oocytes (recombinant) and normal human serum (native), reported together
T5 sequence (P06276 29-602): as the sequence (P06276 29-602) above

Serum BuChE D/D (normal) = target: T6, Serum BuChE D/D (normal) (Homo sapiens, UniProt P06276); test: Inhibition by cocaine / α-solanine, serum D/D; format: biochemical
T6 construct: with enzyme from normal serum; from tissue; host or cells: human serum, normal homozygote
T6 sequence (P06276 29-602): as above

Rec. BuChE D/D (normal) = target: T7, Rec. BuChE D/D (normal) (Homo sapiens, UniProt P06276); test: Inhibition by cocaine / α-solanine, recombinant D/D; format: biochemical
T7 construct: made in house; host or cells: Xenopus oocytes (microinjected in vitro transcribed mRNA)
T7 sequence (P06276 29-602): as above

Rec. AChE = target: T8, Rec. AChE (Homo sapiens, UniProt P22303); test: Inhibition by cocaine, recombinant AChE; format: biochemical
T8 construct: made in house; host or cells: Xenopus oocytes (injected ACHE DNA, CMV promoter)
T8 sequence (P22303 32-614): as the sequence (P22303 32-614) above

"atypical" BuChE [12] = target: T2, "atypical" BuChE; settings: cited from earlier work; remark: listed apart in the source
Target sequence in this assay (P06276 29-602 D98G limits assumed): as the sequence (P06276 29-602) above, with D70G counted along it

[13] = tested on: myasthenia gravis patients; settings: in vivo; cited from earlier work
ChE = settings: cited from earlier work
AD patients = settings: in vivo; cited from earlier work
[14] = tested on: H.K., homozygous for the "atypical" allele; settings: in vivo
[15] = tested on: "atypical" BuChE in H.K.'s serum; test: Serum BuChE hydrolysis, H.K.'s serum; format: biochemical, human
[16] = tested on: BuChE in sera from heterozygotes
THA treated patients = settings: in vivo, cited from earlier work
PD-patient = settings: in vivo; cited from earlier work
[17] = tested on: patients suffering from mild to moderate AD; settings: cited from earlier work
[18] = target: serum and recombinant "atypical" BuChE (Homo sapiens, UniProt P06276, D98G); test: Inhibition by cocaine / α-solanine, "atypical" enzymes; format: biochemical; settings: for activity of "atypical" enzyme at high α-solanine: concentrations higher than 5 μM, FIG. 3
Sequence of serum and recombinant "atypical" BuChE (P06276 29-602 D98G limits assumed): as the sequence (P06276 29-602) above, with D70G counted along it

[19] = tested on: Rec. BuChE D/G (1:1 mixture); format: biochemical, human; settings: read-out: IC50 α-solanine
[20] = tested on: Serum BuChE D/G (heterozygote); format: biochemical, human; settings: read-out: IC50 α-solanine

## CCCCCCCNC(=O)Oc1ccc2c(c1)C1(C)CCN(C)C1N2C (single isomer, unassigned) [N-heptyl physostigmine]
[1]; by 20 minutes, normal and "atypical" BuChE
  spontaneous reactivation, % of original activity: 10%
AChE (E5)
  second order rate constant ki for inactivation: 23300 ± 6700 M⁻¹ s⁻¹
AChE (E6)
  second order rate constant ki for inactivation: 26700 M⁻¹ s⁻¹
Recombinant human AChE; both AChE forms, N-heptyl physostigmine
  spontaneous reactivation, % of original activity: 5%
[2]
  rate of irreversible inactivation versus normal: much slower than its normal counterpart
Recombinant normal BuChE
  inactivation rate compared with AChE: higher than or equal to ACHE
  second order rate constant ki for inactivation: 183000 ± 50000 M⁻¹ s⁻¹
"atypical" BuChE [3]
  inactivation rate of "atypical" BuChE, compared: considerably lower rates

## C=CC[N+](C)(C)c1ccc(CCC(=O)CCc2ccc([N+](C)(C)CC=C)cc2)cc1 [BW284C51, 1,5-bis-(4-allyldimethylammoniumphenyl)-pentane-3-one dibromide]
[4]
  staining of term placenta: largely suppressed staining in term
[5]
  staining of early placenta sections: not early placenta

## CCN(C)C(=O)Oc1cccc([C@H](C)N(C)C)c1 [SDZ ENA-713]
Serum normal BuChE (D/D)
  loss of activity: 95%
AChE (E5)
  second order rate constant ki for inactivation: 55 ± 10 M⁻¹ s⁻¹
AChE (E6)
  second order rate constant ki for inactivation: 71.7 M⁻¹ s⁻¹
[2]; 30 minutes, "atypical" BuChE
  decrease in activity: about 40%
[2]
  rate of irreversible inactivation versus normal: much slower than its normal counterpart
Recombinant normal BuChE
  inactivation rate compared with AChE: higher than or equal to ACHE
  second order rate constant ki for inactivation: 233 ± 50 M⁻¹ s⁻¹
"atypical" BuChE [3]
  inactivation rate of "atypical" BuChE, compared: considerably lower rates
[6]
  spontaneous reactivation, % of original activity: ≤ 8%
[7]
  loss of activity: 80%

## CN(C)C(=O)Oc1cc(OC(=O)N(C)C)cc(C(O)CNC(C)(C)C)c1 (centres unmarked) [bambuterol]
"atypical" BuChE [8]
  higher IC50 value, "atypical" versus wild-type: at least 10 fold
  higher Ki value, "atypical" versus wild-type: at least 10 fold

## COC(=O)[C@H]1[C@@H](OC(=O)c2ccccc2)C[C@@H]2CC[C@H]1N2C [cocaine]
[9]
  IC50: 4050 ± 50 µM
[10]
  IC50: 5200 ± 300 µM
[11]
  IC50: 300 µM
Serum BuChE D/D (normal)
  IC50: 320 ± 80 µM
Rec. BuChE D/D (normal)
  IC50: 280 ± 20 µM
Rec. AChE
  IC50: 3450 ± 2150 µM

## CCCCOc1cc(C(=O)NCCN(CC)CC)c2ccccc2n1 [dibucaine]
"atypical" BuChE [12]
  hydrolysis by the affected ("atypical") enzyme: inability

## CC[N+](C)(C)c1cccc(O)c1 [edrophonium]
[13]
  relief of symptoms: immediate, but brief, relief of the characteristic symptoms

## CC(C)NP(=O)(NC(C)C)OP(=O)(NC(C)C)NC(C)C [iso-OMPA, tetraisopropylpyrophosphoramide]
[4]
  staining of term placenta: no reduction in labeling intensity
"atypical" BuChE [8]
  sensitivity of atypical variant to inhibitors: much less sensitive
[5]
  staining of early placenta sections: remained totally unlabeled

## CN(C)C(=O)Oc1cccc([N+](C)(C)C)c1 [neostigmine]
ChE
  potency / affinity: potency equal to or greater than physostigmine

## CNC(=O)Oc1ccc2c(c1)[C@]1(C)CCN(C)[C@@H]1N2C [physostigmine]
"atypical" BuChE [8]
  higher IC50 value, "atypical" versus wild-type: at least 10 fold
  higher Ki value, "atypical" versus wild-type: at least 10 fold
  sensitivity of atypical variant to inhibitors: much less sensitive
Recombinant human AChE; 45 minutes, AChE
  spontaneous reactivation, % of original activity: up to 90%
AD patients
  effect on cognitive functions: small, short-term positive effect on cognitive functions
[2]
  rate of irreversible inactivation versus normal: much slower than its normal counterpart
Recombinant normal BuChE
  inactivation rate compared with AChE: higher than or equal to ACHE
  second order rate constant ki for inactivation: 6330 ± 2670 M⁻¹ s⁻¹
"atypical" BuChE [3]
  inactivation rate of "atypical" BuChE, compared: considerably lower rates

## CN(C)C(=O)Oc1ccc[n+](C)c1 [pyridostigmine]
[14]
  adverse symptoms: insomnia, weight loss and general fatigue, which worsened consistently, and a deep depression
  time of gradual improvement following discontinuation: 10 weeks
[1]; BuChE, pyridostigmine, FIG. 4
  spontaneous reactivation, % of original activity: 10%
AChE (E5)
  second order rate constant ki for inactivation: 417 M⁻¹ s⁻¹
AChE (E6)
  second order rate constant ki for inactivation: 367 ± 150 M⁻¹ s⁻¹
Recombinant human AChE; AChE, pyridostigmine, FIG. 4
  spontaneous reactivation, % of original activity: 50%
[2]
  rate of irreversible inactivation versus normal: much slower than its normal counterpart
Recombinant normal BuChE
  second order rate constant ki for inactivation: 31.7 ± 3.3 M⁻¹ s⁻¹

## C[N+](C)(C)CCOC(=O)CCC(=O)OCC[N+](C)(C)C [succinylcholine]
"atypical" BuChE [12]
  hydrolysis by the affected ("atypical") enzyme: unable to hydrolyze succinylcholine
"atypical" BuChE [12]; listed as succinyl choline
  hydrolysis by the affected ("atypical") enzyme: unable to hydrolyze succinyl choline; also recorded: inability
[15]
  hydrolysis of succinylcholine by H.K.'s serum BuChE: totally incapable of hydrolyzing succinylcholine; also recorded: cannot hydrolyze succinylcholine

## Nc1c2c(nc3ccccc13)CCCC2 [tacrine, 1,2,3,4-tetrahydro-9 aminoacridine]
[16]
  effect of 1 μm of the drug: intermediate levels of activity
THA treated patients
  patients with cholinergic side-effects / deficits: up to 15%
THA treated patients; listed as THA
  patients with cholinergic side-effects / deficits: over 10%
PD-patient
  PD symptoms: worsening of the symptoms
[17]; 30 weeks
  improvement in AD: statistically significant, dose-related improvements
[17]; in 2% of the cases
  serum level of the aminotransferase: 20 times the upper limit of normal value
[17]; in vivo
  cases reaching 20 times the upper limit of normal aminotransferase: 2%
  serum level of the aminotransferase, usual: less than three times the upper limit of normal value

## C[C@H]1CC[C@@H]2[C@@H](C)[C@H]3[C@H](C[C@H]4[C@@H]5CC=C6C[C@@H](O[C@@H]7O[C@H](CO)[C@H](O)[C@H](O[C@@H]8O[C@H](CO)[C@@H](O)[C@H](O)[C@H]8O)[C@H]7O[C@@H]7O[C@@H](C)[C@H](O)[C@@H](O)[C@H]7O)CC[C@]6(C)[C@H]5CC[C@]34C)N2C1 [α-solanine]
[9]; Rec. BuChE G/G, read-out: IC50 α-solanine
  IC50: 171 µM
[10]; Serum BuChE G/G, read-out: IC50 α-solanine
  IC50: 165 µM
[11]; normal, read-out: IC50 for α-solanine
  IC50: 2.5 µM
Serum BuChE D/D (normal); Serum BuChE D/D, read-out: IC50 α-solanine
  IC50: 2.88 ± 0.33 µM
[18]; "atypical"
  IC50: 170 µM
[18]; "atypical" vs normal
  IC50 difference for α-solanine: > 100 fold
[18]
  activity of "atypical" enzyme at high α-solanine: retains higher activity than the normal and the heterozygote enzymes
[18]; listed as α-solanidine
  activity of "atypical" enzyme at high α-solanine: shows higher activities than the normal, D70 enzyme
[18]; up to 10 μM
  inhibition of "atypical" enzyme by α-solanine: relatively inert
Rec. BuChE D/D (normal); Rec. BuChE D/D, read-out: IC50 α-solanine
  IC50: 1.95 ± 1.04 µM
[19]
  IC50: 3.54 ± 2.41 µM
[20]
  IC50: 3.61 ± 0.81 µM
